# Where two headings read alike, the source gives them in different places.
# How the values were obtained:
# Format in all cases: physicochemical
# [1] = Light characteristics: visible absorption spectrum in methanol and as thin layer over glass; conditions: for Maximum absorption (nm) CH3OH: dissolved in methanol; for Maximum absorption (nm) Thin Layer: formed into layer over glass; for Shift of absorption maximum compared with conventional related compounds: thin layer, in words
# Procedure: The cyanine dyes as listed in Table 1 of the present invention and known compounds represented by Chemical Formulae 33 and 34 as controls were measured for visible absorption spectrum when dissolved in methanol and formed into layers over glasses.
# [2] = Solubility of cyanine dye in TFP; conditions: in TFP at 20° C.
# Procedure: For the cyanine dyes in Table 1, they were measured for solubility in TFP at 20° C.
# When coating over the substrates for optical recording media, the cyanine dyes are generally prepared into 0.1-10 w/w % solutions.
# [3] = Decomposition point by DTA and TGA; conditions: for Decomposability at temperatures around decomposition point / Rapidity of decomposition among Chemical Formulae 1, 4 and 6 to 8: in words; for Decomposition point (° C.): temperature increase 10° C./min
# Text: An adequate amount of either of the cyanine dyes in Table 1 as a test specimen was placed in a vessel and subjected to conventional differential thermal analysis (hereinafter abbreviated as “DTA”) and thermogravimetric analysis (hereinafter abbreviated as “TGA”) using “MODEL TG/DTA 220”, a digital thermo analyzer commercialized by Seiko Instruments Inc., Tokyo, Japan, to determine the melting point, i.e., a temperature at which the cyanine dyes as test specimens begin to absorb heat on […], and to determine the decomposition point, i.e., a temperature at which the cyanine dyes as test specimens begin to lose weight on […]. In parallel, conventional related compounds represented by Chemical Formulae 33 and 34 were analyzed similarly as above. FIGS. 2 and 3 are respectively the results of the cyanine dye represented by Chemical Formula 4 of the present invention and conventional related compound represented by Chemical Formula 34. In DTA and TGA, the environmental temperature was set to an increasing temperature mode at a rate of 10° C./min.
# As evident from Table 1 and FIGS. 2 and 3, all the conventional related compounds had melting points and decomposition points which were different from each other, and very slowly decomposed at temperatures around their decomposition points. […] Most specifically, conventional known compounds had both melting points and decomposition points which were different from each other, i.e., the difference ranged from 17 to 108° C., while most of the cyanine dyes of the present invention had decomposition points which were undistinguishable from their melting points or had only the decomposition points.
# [4] = Decomposition rate: differential calorimetric curve (DSC), half value width; conditions: for Calorific value / Decomposition initiating point / Decomposition peak point / Half value width: DSC, 10° C./min; for Calorific value / Decomposition initiating point / Decomposition peak point: nitrogen atmosphere; for Half value width: width of decomposition peak at half calorific value, nitrogen
# Procedure: For the cyanine dyes represented by Chemical Formulae 4, 6 and 8 of the present invention, they were in a usual manner examined for differential calorimetric curve when heated under an increasing temperature rate of 10° C./min and nitrogen atmospheric conditions using “MODEL DSC220U”, a digital thermo analyzer commercialized by Seiko Instruments Inc., Tokyo, Japan. In parallel, conventional cyanine dye represented by Chemical Formula 33 was examined for differential calorimetric curve similarly as above. FIGS. 4 and 5 are respectively differential calorimetric curves for the cyanine dyes represented by Chemical Formulae 4 and 33.
# Based on the results of the differential calorimetric curves, the half calorific vallues at descomposition peaks for each cyanine dyes were determined, and the thermal difference between the two points, having the determined half calorific values at both ends of each descomposition peaks (hereinafter designated as “a half value width”), was determined.
# As evident from the results in Table 2 and FIGS. 4 and 5, the cyanine dyes of the present invention instantly and promptly decomposed in spite of their substantially the same calorific-values as compared with conventional one. […] Similarly as in conventional related compounds represented by Formulae 33 and 34, dyes with a relatively-slow decomposition rate are substantially difficult to form stable minute pits at a relatively-high density on a restricted recording surface of high-density optical recording media such as DVD-Rs, as mentioned above. Varying depending on glass transition temperature of substrate, when used as a light absorbent in optical recording media, dyes with a lower decomposition point can be generally used to write information by using a lower-power laser beam as a merit, however, as a demerit, when exposed to laser beam for a relatively-long period of time on reading, the dyes tend to accumulate heat and deform parts around pits and other parts free of pit on recording surfaces, resulting in large jitters and reading errors. The cyanine dyes of the present invention substantially absorb a visible light with a wavelength around 650 nm when formed into a thin layer, have decomposition points which are undistinguishable from their melting points or only have the decomposition points of relatively-high temperatures, and have an outstandingly-high decomposition rate at around the decomposition points. These characteristics mean that high-density optical recording media, having a relatively-small jitter, insubstantial reading error, and satisfactory stability of exposure to environmental light such as reading light and natural light, can be obtained by using the cyanine dyes of the present invention as light absorbents. The reason of why the half value width was employed as an index for the decomposability in this example was due to the fact that it can effectively evaluate the decomposition rate of test specimens.
SMILES,Maximum absorption (nm) CH3OH [1] [nm],Maximum absorption (nm) Thin Layer [1] [nm],Shift of absorption maximum compared with conventional related compounds [1],"Solubility ([2]; organic solvent or mixture, read-out: Solubility) [mg/mL]",Decomposability at temperatures around decomposition point [3],"Rapidity of decomposition among Chemical Formulae 1, 4 and 6 to 8 [3]",Solubility [2] [mg/mL],Decomposition point (° C.) [3] [°C],Calorific value [4] [mJ/mg],Decomposition initiating point [4] [°C],Decomposition peak point [4] [°C],Half value width as level of that of conventional cyanine dye ([4]; relative to Chemical Formula 33),Half value width [4] [°C]
CN1C(=CC=CC2=[N+](C)c3ccc([N+](=O)[O-])cc3C2(C)C)C(C)(C)c2c1ccc1ccccc21 [Chemical Formula 1],573,609,shifted their absorption maxima to longer wavelengths by a large margin,36,instantly decomposed at once,decomposed most rapidly,,,,,,,
CCCCN1C(=CC=CC2=[N+](C)c3ccc([N+](=O)[O-])cc3C2(C)C)C(C)(C)c2c1ccc1ccccc21.CCN(CC)c1ccc2c(c1)[O][Co-]1([O]c3ccc([N+](=O)[O-])cc3N=N2)[O]c2ccc([N+](=O)[O-])cc2N=Nc2ccc(N(CC)CC)cc2[O]1 [Chemical Formula 3],540,557,,,,,22,271.3,,,,,
CCN1C(=CC=CC2=[N+](CC)c3ccc([N+](=O)[O-])cc3C2(C)C)C(C)(C)c2c1ccc1ccccc21.[O-][Cl+3]([O-])([O-])[O-] [Chemical Formula 4],576,609,shifted their absorption maxima to longer wavelengths by a large margin,,instantly decomposed at once,decomposed most rapidly,126,,1826,295.8,298.6,⅙,7.7
CCCN1C(=CC=CC2=[N+](CCC)c3ccc([N+](=O)[O-])cc3C2(C)C)C(C)(C)c2c1ccc1ccccc21.[O-][Cl+3]([O-])([O-])[O-] [Chemical Formula 6],578,609,shifted their absorption maxima to longer wavelengths by a large margin,,,decomposed most rapidly,164,,1827,279.5,285.5,,13.2
CCCCN1C(=CC=CC2=[N+](CCC)c3ccc([N+](=O)[O-])cc3C2(C)C)C(C)(C)c2c1ccc1ccccc21.[O-][Cl+3]([O-])([O-])[O-] [Chemical Formula 7],577,609,shifted their absorption maxima to longer wavelengths by a large margin,,,decomposed most rapidly,210,261.2,,,,,
CCCCN1C(=CC=CC2=[N+](CCCC)c3ccc([N+](=O)[O-])cc3C2(C)C)C(C)(C)c2c1ccc1ccccc21.[O-][Cl+3]([O-])([O-])[O-] [Chemical Formula 8],577,609,shifted their absorption maxima to longer wavelengths by a large margin,,,,245,262.4,1663,249.9,273.5,,32.2
CCN1C(=CC=CC2=[N+](CC)c3ccc([N+](=O)[O-])cc3C2(C)C)C(C)(C)c2ccc3ccccc3c21.[O-][Cl+3]([O-])([O-])[O-] [Chemical Formula 15],562,617,shifted their absorption maxima to longer wavelengths by a large margin,,,,229,270.7,,,,,
CCCCN1C(=CC=CC2=[N+](C)c3ccc(S(=O)(=O)N(CC)CC)cc3C2(C)C)C(C)(C)c2c1ccc1ccccc21.F[P-](F)(F)(F)(F)F [Chemical Formula 23],591,591,,,,,>200,273.5,,,,,
CCCCN1C(=CC=CC2=[N+](C)c3ccc(S(=O)(=O)N(CC)CC)cc3C2(C)C)C(C)(C)c2c1ccc1ccccc21.CCN(CC)c1ccc2c(c1)[O][Co-]1([O]c3ccc([N+](=O)[O-])cc3N=N2)[O]c2ccc([N+](=O)[O-])cc2N=Nc2ccc(N(CC)CC)cc2[O]1 [Chemical Formula 24],538,556,,,,,197,,,,,,
CCCCN1C(=CC=CC2=[N+](C)c3ccc(S(=O)(=O)N(CC)CC)cc3C2(C)C)C(C)(C)c2c1ccc1ccccc21.O=[N+]([O-])c1ccc2c(c1)N=Nc1c(ccc3ccccc13)[O][Ni-]1([O]2)[O]c2ccc([N+](=O)[O-])cc2N=Nc2c(ccc3ccccc23)[O]1 [Chemical Formula 26],570,594,,,,,127,257.3,,,,,
CCN1C(=CC=CC2=[N+](CC)c3ccc(S(=O)(=O)N(CC)CC)cc3C2(C)C)C(C)(C)c2c1ccc1ccccc21.[O-][Cl+3]([O-])([O-])[O-] [Chemical Formula 27],571,592,,,,,>200,,,,,,
"CCCCN1/C(=C/C=C/C2=[N+](CCCC)c3ccccc3C2(C)C)C(C)(C)c2c1ccc1ccccc21 [Chemical Formula 33, reference compound]",568,600,,,,,,268.1,1467,255.4,297.4,,49.9
"CCCCN1/C(=C/C=C/C2=[N+](CCCC)c3ccc(C)cc3C2(C)C)C(C)(C)c2c1ccc1ccccc21 [Chemical Formula 34, reference compound]",574,599,,,,,,267,,,,,
